Measured values as given in US20140109520A1, “BEVERAGE FILLING METHOD AND APPARATUS” (DAI NIPPON PRINTING CO., LTD., priority 2008, published 2014).
Like-named read-outs stand apart in the source and are kept apart here.

How the values were obtained:
[1] = for Remaining hydrogen peroxide: 500 mL PET bottle, 30 μL hydrogen peroxide
[2] = test system: B. subtilis var. niger ATCC9372
From the text: Evaluation method to the measurement was as follows.
Sterilization Effects (Log Reduction)=Log(Number of Adhering Bacteria/Number of Survived Bacteria)
Index Bacteria: B. subtilis var. niger ATCC9372

[3] = test system: bacteria adhering to the inner surfaces of the preforms; conditions: for Number of bacteria adhering on inner surface of preform 10^3: 10^3 bacteria; for Number of bacteria adhering on inner surface of preform 10^4: 10^4 bacteria; for Number of bacteria adhering on inner surface of preform 10^5: 10^5 bacteria
From the text: (§1) In the column “No” in the above Table 2, A1, A2, A3, B1, B2 denotes bottle sample numbers, in which A1, A2 and A3 correspond to the conventional sterilization method, and B1 and B2 correspond to the third embodiment of the present invention mentioned above.

B. subtilis spore = test system: B. subtilis spore
From the text: Effects attained by the container sterilization method of the present invention will be compared with effects attained by the conventional sterilization method as in the following Table 2.
as §1
The column “Log Reduction” represents LRV (Logarithmic Reduction Value) as to B. subtilis spore.

[4] = 0.5 sec from hydrogen peroxide spray to air-rinse
[5] = 2 sec from hydrogen peroxide spray to air-rinse
[6] = 5 sec from hydrogen peroxide spray to air-rinse
[7] = bottle sample A2, conventional method, H2O2 mist 100 μL/bottle, H2O2 in air 0.0 mg/L
[8] = bottle sample A3, conventional method, H2O2 mist 150 μL/bottle, H2O2 in air 0.0 mg/L
[9] = bottle sample B1, third embodiment, H2O2 mist 50 μL/bottle, H2O2 in air 3.3 mg/L
[10] = bottle sample B2, third embodiment, H2O2 mist 50 μL/bottle, H2O2 in air 5 mg/L
[11] = bottle sample A1, conventional method, H2O2 mist 50 μL/bottle, H2O2 in air 0.0 mg/L, using amount 170 mL/min
[12] = bottle sample A2, conventional method, H2O2 mist 100 μL/bottle, H2O2 in air 0.0 mg/L, using amount 340 mL/min
[13] = bottle sample B1, third embodiment, H2O2 mist 50 μL/bottle, H2O2 in air 3.3 mg/L, using amount 230 mL/min

## OO [hydrogen peroxide]
[1]; [4]
  Judgment (remaining hydrogen peroxide): ∘
  Remaining hydrogen peroxide: 0.3 ppm
[1]; [5]
  Judgment (remaining hydrogen peroxide): ∘
[1]; [6]
  Remaining hydrogen peroxide: 0.9 ppm
Bottle temperature 65° C.
  density of the hydrogen peroxide adhering to the surface of the bottle: ~80 weight %
Bottle temperature 80° C.
  density of the hydrogen peroxide adhering to the surface of the bottle: ~90 weight %
[2]; [5]
  Judgment (log reduction): ∘
[2]; [6]
  Judgment (log reduction): ∘
[3]; [7]
  Number of bacteria adhering on inner surface of preform 10^3: ◯◯◯
  Number of bacteria adhering on inner surface of preform 10^4: ◯◯◯
  Number of bacteria adhering on inner surface of preform 10^5: ◯◯[…]
[3]; [8]
  Number of bacteria adhering on inner surface of preform 10^3: ◯◯◯
  Number of bacteria adhering on inner surface of preform 10^4: ◯◯◯
  Number of bacteria adhering on inner surface of preform 10^5: ◯◯◯
[3]; [9]
  Number of bacteria adhering on inner surface of preform 10^3: ◯◯◯
  Number of bacteria adhering on inner surface of preform 10^4: ◯◯◯
  Number of bacteria adhering on inner surface of preform 10^5: ◯◯[…]
[3]; [10]
  Number of bacteria adhering on inner surface of preform 10^3: ◯◯◯
  Number of bacteria adhering on inner surface of preform 10^4: ◯◯◯
  Number of bacteria adhering on inner surface of preform 10^5: ◯◯◯
B. subtilis spore; [11]
  Judgment Sterilization performance: X (LVR being less than 6)
  Log reduction: <3.4
B. subtilis spore; [12]
  Judgment Sterilization performance: ◯ (shows LRV being 6)
  Log reduction: 6.0
B. subtilis spore; bottle sample A3, conventional method, H2O2 mist 150 μL/bottle, H2O2 in air 0.0 mg/L, using amount 510 mL/min
  Log reduction: >6.0
B. subtilis spore; [13]
  Judgment Sterilization performance: ◯ (shows LRV being 6)
  Log reduction: 6
B. subtilis spore; bottle sample B2, third embodiment, H2O2 mist 50 μL/bottle, H2O2 in air 5 mg/L, using amount 280 mL/min
  Log reduction: >6.0
B. subtilis spore; conventional method, hydrogen peroxide of 340 mL/min. to 510 mL/min.
  sterilization effect LRV: 6
B. subtilis spore; method of the present invention, hydrogen peroxide of 230 mL/min. to 260 mL/min.
  sterilization effect LRV: 6
